{"source": "the NIST ThermoML archive (doi:10.1021/acs.jced.6b00750)", "assay": "xn = mol fraction of the nth substance listed", "details": "Liquid; for mass density: Vibrating wire densiometer; for viscosity: Vibrating wire viscometry", "key": {"[1]": {"details": "373.08 K, 80110 kPa, x2 = 0.727"}, "[2]": {"details": "373.08 K, 80560 kPa, x2 = 0.069"}, "[3]": {"details": "373.08 K, 99990 kPa, x2 = 0.727"}, "[4]": {"details": "373.08 K, 100830 kPa, x2 = 0.069"}, "[5]": {"details": "373.08 K, 117640 kPa, x2 = 0.727"}, "[6]": {"details": "373.11 K, 20760 kPa, x2 = 0.5877"}, "[7]": {"details": "373.11 K, 20790 kPa, x2 = 0.5877"}, "[8]": {"details": "373.11 K, 40220 kPa, x2 = 0.5877"}, "[9]": {"details": "373.11 K, 60460 kPa, x2 = 0.5877"}, "[10]": {"details": "373.11 K, 80240 kPa, x2 = 0.5877"}, "[11]": {"details": "423.11 K, 11500 kPa, x2 = 0.069"}, "[12]": {"details": "423.11 K, 11890 kPa, x2 = 0.069"}, "[13]": {"details": "423.11 K, 21700 kPa, x2 = 0.069"}, "[14]": {"details": "423.11 K, 25910 kPa, x2 = 0.5877"}, "[15]": {"details": "423.11 K, 25970 kPa, x2 = 0.5877"}, "[16]": {"details": "423.11 K, 40190 kPa, x2 = 0.5877"}, "[17]": {"details": "423.11 K, 40710 kPa, x2 = 0.069"}, "[18]": {"details": "423.11 K, 42080 kPa, x2 = 0.727"}, "[19]": {"details": "423.11 K, 42200 kPa, x2 = 0.727"}, "[20]": {"details": "423.11 K, 60240 kPa, x2 = 0.5877"}, "[21]": {"details": "423.11 K, 60280 kPa, x2 = 0.727"}, "[22]": {"details": "423.11 K, 60590 kPa, x2 = 0.069"}, "[23]": {"details": "423.11 K, 80390 kPa, x2 = 0.727"}, "[24]": {"details": "423.11 K, 80460 kPa, x2 = 0.5877"}, "[25]": {"details": "423.11 K, 80740 kPa, x2 = 0.069"}, "[26]": {"details": "423.11 K, 100360 kPa, x2 = 0.727"}, "[27]": {"details": "423.11 K, 100800 kPa, x2 = 0.5877"}, "[28]": {"details": "423.11 K, 101550 kPa, x2 = 0.069"}, "[29]": {"details": "423.11 K, 118170 kPa, x2 = 0.5877"}, "[30]": {"details": "423.11 K, 120210 kPa, x2 = 0.727"}, "[31]": {"details": "473.15 K, 43620 kPa, x2 = 0.5877"}, "[32]": {"details": "473.15 K, 43720 kPa, x2 = 0.5877"}, "[33]": {"details": "473.15 K, 60700 kPa, x2 = 0.5877"}, "[34]": {"details": "473.15 K, 80450 kPa, x2 = 0.5877"}, "[35]": {"details": "473.15 K, 100840 kPa, x2 = 0.5877"}, "[36]": {"details": "473.15 K, 120610 kPa, x2 = 0.5877"}, "[37]": {"details": "473.26 K, 61090 kPa, x2 = 0.727"}, "[38]": {"details": "473.26 K, 61330 kPa, x2 = 0.727"}, "[39]": {"details": "473.26 K, 80480 kPa, x2 = 0.727"}, "[40]": {"details": "473.26 K, 100590 kPa, x2 = 0.727"}, "[41]": {"details": "473.26 K, 120860 kPa, x2 = 0.727"}}, "note": "± gives the expanded uncertainty stated by the source.", "data": [{"molecule": "CCCCCCCCCCCCCCCC", "note": "[hexadecane] + O=C=O", "values": [{"measurement": "mass density", "setting": "[1]", "result": "813.1 ± 2.5", "unit": "kg/m3"}, {"measurement": "viscosity", "setting": "[1]", "result": "0.581 ± 0.013", "unit": "mPa·s"}, {"measurement": "mass density", "setting": "[2]", "result": "773.5 ± 2.3", "unit": "kg/m3"}, {"measurement": "viscosity", "setting": "[2]", "result": "1.794 ± 0.038", "unit": "mPa·s"}, {"measurement": "mass density", "setting": "[3]", "result": "828.7 ± 2.5", "unit": "kg/m3"}, {"measurement": "viscosity", "setting": "[3]", "result": "0.659 ± 0.015", "unit": "mPa·s"}, {"measurement": "mass density", "setting": "[4]", "result": "783.5 ± 2.4", "unit": "kg/m3"}, {"measurement": "viscosity", "setting": "[4]", "result": "2.087 ± 0.047", "unit": "mPa·s"}, {"measurement": "mass density", "setting": "[5]", "result": "840.7 ± 2.5", "unit": "kg/m3"}, {"measurement": "viscosity", "setting": "[5]", "result": "0.735 ± 0.017", "unit": "mPa·s"}, {"measurement": "mass density", "setting": "[6]", "result": "745.5 ± 2.3", "unit": "kg/m3"}, {"measurement": "viscosity", "setting": "[6]", "result": "0.463 ± 0.011", "unit": "mPa·s"}, {"measurement": "mass density", "setting": "[7]", "result": "745.5 ± 2.3", "unit": "kg/m3"}, {"measurement": "viscosity", "setting": "[7]", "result": "0.463 ± 0.011", "unit": "mPa·s"}, {"measurement": "mass density", "setting": "[8]", "result": "768.7 ± 2.4", "unit": "kg/m3"}, {"measurement": "viscosity", "setting": "[8]", "result": "0.564 ± 0.013", "unit": "mPa·s"}, {"measurement": "mass density", "setting": "[9]", "result": "787.7 ± 2.4", "unit": "kg/m3"}, {"measurement": "viscosity", "setting": "[9]", "result": "0.67 ± 0.015", "unit": "mPa·s"}, {"measurement": "mass density", "setting": "[10]", "result": "803.1 ± 2.4", "unit": "kg/m3"}, {"measurement": "viscosity", "setting": "[10]", "result": "0.775 ± 0.018", "unit": "mPa·s"}, {"measurement": "mass density", "setting": "[11]", "result": "694.2 ± 2.1", "unit": "kg/m3"}, {"measurement": "viscosity", "setting": "[11]", "result": "0.574 ± 0.013", "unit": "mPa·s"}, {"measurement": "mass density", "setting": "[12]", "result": "694.7 ± 2.1", "unit": "kg/m3"}, {"measurement": "viscosity", "setting": "[12]", "result": "0.576 ± 0.013", "unit": "mPa·s"}, {"measurement": "mass density", "setting": "[13]", "result": "705.2 ± 2.2", "unit": "kg/m3"}, {"measurement": "viscosity", "setting": "[13]", "result": "0.645 ± 0.015", "unit": "mPa·s"}, {"measurement": "mass density", "setting": "[14]", "result": "708.9 ± 2.2", "unit": "kg/m3"}, {"measurement": "viscosity", "setting": "[14]", "result": "0.328 ± 0.008", "unit": "mPa·s"}, {"measurement": "mass density", "setting": "[15]", "result": "709.4 ± 2.2", "unit": "kg/m3"}, {"measurement": "viscosity", "setting": "[15]", "result": "0.33 ± 0.008", "unit": "mPa·s"}, {"measurement": "mass density", "setting": "[16]", "result": "730.3 ± 2.3", "unit": "kg/m3"}, {"measurement": "viscosity", "setting": "[16]", "result": "0.384 ± 0.009", "unit": "mPa·s"}, {"measurement": "mass density", "setting": "[17]", "result": "722.5 ± 2.2", "unit": "kg/m3"}, {"measurement": "viscosity", "setting": "[17]", "result": "0.778 ± 0.017", "unit": "mPa·s"}, {"measurement": "mass density", "setting": "[18]", "result": "730.1 ± 2.3", "unit": "kg/m3"}, {"measurement": "viscosity", "setting": "[18]", "result": "0.296 ± 0.008", "unit": "mPa·s"}, {"measurement": "mass density", "setting": "[19]", "result": "730.3 ± 2.3", "unit": "kg/m3"}, {"measurement": "viscosity", "setting": "[19]", "result": "0.296 ± 0.008", "unit": "mPa·s"}, {"measurement": "mass density", "setting": "[20]", "result": "753.3 ± 2.3", "unit": "kg/m3"}, {"measurement": "viscosity", "setting": "[20]", "result": "0.462 ± 0.011", "unit": "mPa·s"}, {"measurement": "mass density", "setting": "[21]", "result": "755.6 ± 2.3", "unit": "kg/m3"}, {"measurement": "viscosity", "setting": "[21]", "result": "0.353 ± 0.009", "unit": "mPa·s"}, {"measurement": "mass density", "setting": "[22]", "result": "737.2 ± 2.2", "unit": "kg/m3"}, {"measurement": "viscosity", "setting": "[22]", "result": "0.929 ± 0.02", "unit": "mPa·s"}, {"measurement": "mass density", "setting": "[23]", "result": "777.7 ± 2.4", "unit": "kg/m3"}, {"measurement": "viscosity", "setting": "[23]", "result": "0.412 ± 0.01", "unit": "mPa·s"}, {"measurement": "mass density", "setting": "[24]", "result": "772 ± 2.3", "unit": "kg/m3"}, {"measurement": "viscosity", "setting": "[24]", "result": "0.537 ± 0.012", "unit": "mPa·s"}, {"measurement": "mass density", "setting": "[25]", "result": "750 ± 2.3", "unit": "kg/m3"}, {"measurement": "viscosity", "setting": "[25]", "result": "1.083 ± 0.023", "unit": "mPa·s"}, {"measurement": "mass density", "setting": "[26]", "result": "795.9 ± 2.4", "unit": "kg/m3"}, {"measurement": "viscosity", "setting": "[26]", "result": "0.471 ± 0.011", "unit": "mPa·s"}, {"measurement": "mass density", "setting": "[27]", "result": "787.9 ± 2.4", "unit": "kg/m3"}, {"measurement": "viscosity", "setting": "[27]", "result": "0.614 ± 0.014", "unit": "mPa·s"}, {"measurement": "mass density", "setting": "[28]", "result": "761.6 ± 2.3", "unit": "kg/m3"}, {"measurement": "viscosity", "setting": "[28]", "result": "1.253 ± 0.027", "unit": "mPa·s"}, {"measurement": "mass density", "setting": "[29]", "result": "799.8 ± 2.4", "unit": "kg/m3"}, {"measurement": "viscosity", "setting": "[29]", "result": "0.683 ± 0.015", "unit": "mPa·s"}, {"measurement": "mass density", "setting": "[30]", "result": "811.4 ± 2.5", "unit": "kg/m3"}, {"measurement": "viscosity", "setting": "[30]", "result": "0.529 ± 0.012", "unit": "mPa·s"}, {"measurement": "mass density", "setting": "[31]", "result": "697.7 ± 2.2", "unit": "kg/m3"}, {"measurement": "viscosity", "setting": "[31]", "result": "0.293 ± 0.008", "unit": "mPa·s"}, {"measurement": "mass density", "setting": "[32]", "result": "697.7 ± 2.2", "unit": "kg/m3"}, {"measurement": "viscosity", "setting": "[32]", "result": "0.292 ± 0.008", "unit": "mPa·s"}, {"measurement": "mass density", "setting": "[33]", "result": "720.7 ± 2.2", "unit": "kg/m3"}, {"measurement": "viscosity", "setting": "[33]", "result": "0.343 ± 0.009", "unit": "mPa·s"}, {"measurement": "mass density", "setting": "[34]", "result": "742 ± 2.3", "unit": "kg/m3"}, {"measurement": "viscosity", "setting": "[34]", "result": "0.402 ± 0.01", "unit": "mPa·s"}, {"measurement": "mass density", "setting": "[35]", "result": "760.2 ± 2.3", "unit": "kg/m3"}, {"measurement": "viscosity", "setting": "[35]", "result": "0.46 ± 0.011", "unit": "mPa·s"}, {"measurement": "mass density", "setting": "[36]", "result": "775.2 ± 2.4", "unit": "kg/m3"}, {"measurement": "viscosity", "setting": "[36]", "result": "0.52 ± 0.012", "unit": "mPa·s"}, {"measurement": "mass density", "setting": "[37]", "result": "718.9 ± 2.2", "unit": "kg/m3"}, {"measurement": "viscosity", "setting": "[37]", "result": "0.267 ± 0.007", "unit": "mPa·s"}, {"measurement": "mass density", "setting": "[38]", "result": "719.1 ± 2.2", "unit": "kg/m3"}, {"measurement": "viscosity", "setting": "[38]", "result": "0.268 ± 0.007", "unit": "mPa·s"}, {"measurement": "mass density", "setting": "[39]", "result": "744 ± 2.3", "unit": "kg/m3"}, {"measurement": "viscosity", "setting": "[39]", "result": "0.313 ± 0.008", "unit": "mPa·s"}, {"measurement": "mass density", "setting": "[40]", "result": "765.1 ± 2.3", "unit": "kg/m3"}, {"measurement": "viscosity", "setting": "[40]", "result": "0.36 ± 0.009", "unit": "mPa·s"}, {"measurement": "mass density", "setting": "[41]", "result": "783 ± 2.4", "unit": "kg/m3"}, {"measurement": "viscosity", "setting": "[41]", "result": "0.407 ± 0.01", "unit": "mPa·s"}]}]}
